# Assay results as given in ChEMBL document CHEMBL4251590, “Novel vanillin derivatives: Synthesis, anti-oxidant, DNA and cellular protection properties” (Eur J Med Chem, 2018).
# Active and inactive are the calls of the source. The calls are words filed in the database; no cut-off is given here.
# System: SH-SY5Y
# Test: Cytoprotective activity against H2O2-induced oxidative damage in human SH-SY5Y cells at 0.1 uM preincubated for 24 hrs followed by H2O2 addition and measured after 24 hrs by MTT assay
# Assay type: functional
row,Compound,Activity
1,COc1cc(CN(Cc2ccc(O)c(OC)c2)c2ccc(N(Cc3ccc(O)c(OC)c3)Cc3ccc(O)c(OC)c3)cc2)ccc1O,8%

# System: SH-SY5Y
# Test: Cytoprotective activity against H2O2-induced oxidative damage in human SH-SY5Y cells at 200 uM preincubated for 24 hrs followed by H2O2 addition and measured after 24 hrs by MTT assay
# Assay type: functional
row,Compound,Activity
1,COc1cc(CN(CCCO)Cc2ccc(O)c(OC)c2)ccc1O,20%

# System: DNA
# Test: Antioxidant activity assessed as protection against AAPH-induced DNA damage in Escherichia coli plasmid pbr322 DNA assessed as DNA intensity level at 2.6 uM after 1 hr by agarose gel electrophoresis method (reference value: 0%)
# Assay type: functional
row,Compound,Activity
1,COc1cc(CN(Cc2ccc(O)c(OC)c2)c2ccc(N(Cc3ccc(O)c(OC)c3)Cc3ccc(O)c(OC)c3)cc2)ccc1O,90.5%

# System: SH-SY5Y
# Test: Cytoprotective activity against H2O2-induced oxidative damage in human SH-SY5Y cells up to 800 uM preincubated for 24 hrs followed by H2O2 addition and measured after 24 hrs by MTT assay
# Assay type: functional, cell-based
row,Compound,Activity
1,COc1cc(C=O)ccc1O [VANILLIN],inactive

# System: not listed separately
# Test: Antioxidant activity assessed as DPPH radical scavenging activity up to 250 uM after 30 mins
# Assay type: functional
row,Compound,Activity
1,COc1cccc(CN(Cc2cccc(OC)c2)c2ccc(N(Cc3cccc(OC)c3)Cc3cccc(OC)c3)cc2)c1,inactive
2,COc1cc(CN(CCCN(Cc2ccc(O)c(OC)c2)Cc2ccc(O)c(OC)c2)Cc2ccc(O)c(OC)c2)ccc1O,inactive
3,COc1cc(CN(CCCN)Cc2ccc(O)c(OC)c2)ccc1O,inactive

# System: SH-SY5Y
# Test: Cytotoxicity against human SH-SY5Y cells up to 20 uM incubated for 24 hrs by MTT assay
# Assay type: cell-based
row,Compound,Activity
1,COc1cc(CN(Cc2ccc(O)c(OC)c2)c2ccc(N(Cc3ccc(O)c(OC)c3)Cc3ccc(O)c(OC)c3)cc2)ccc1O,Non-Toxic

# System: DNA
# Test: Antioxidant activity assessed as protection against AAPH-induced DNA damage in Escherichia coli plasmid pbr322 DNA assessed as DNA intensity level at 0.65 uM after 1 hr by agarose gel electrophoresis method (reference value: 0%)
# Assay type: functional
row,Compound,Activity
1,COc1cc(CN(Cc2ccc(O)c(OC)c2)c2ccc(N(Cc3ccc(O)c(OC)c3)Cc3ccc(O)c(OC)c3)cc2)ccc1O,59.7%

# System: DNA
# Test: Antioxidant activity assessed as protection against AAPH-induced DNA damage in Escherichia coli plasmid pbr322 DNA assessed as DNA intensity level at 0.33 uM after 1 hr by agarose gel electrophoresis method (reference value: 0%)
# Assay type: functional
row,Compound,Activity
1,COc1cc(CN(Cc2ccc(O)c(OC)c2)c2ccc(N(Cc3ccc(O)c(OC)c3)Cc3ccc(O)c(OC)c3)cc2)ccc1O,25.1%

# System: not listed separately
# Test: Antioxidant activity assessed as ferric ion reducing activity by measuring trolox equivalents using Fe3+-TPTZ after 30 mins by FRAP assay
# Assay type: functional
row,Compound,Activity
1,COc1cccc(CN(Cc2cccc(OC)c2)c2ccc(N(Cc3cccc(OC)c3)Cc3cccc(OC)c3)cc2)c1,2.54 equiv
2,COc1cc(C=O)ccc1O [VANILLIN],0.11 equiv
3,COc1cc(CN(Cc2ccc(O)c(OC)c2)c2ccc(N(Cc3ccc(O)c(OC)c3)Cc3ccc(O)c(OC)c3)cc2)ccc1O,5.29 equiv
4,COc1cc(CN(CCCN(Cc2ccc(O)c(OC)c2)Cc2ccc(O)c(OC)c2)Cc2ccc(O)c(OC)c2)ccc1O,0.74 equiv
5,COc1cc(CNCc2ccccc2)ccc1O,0.16 equiv
6,Oc1ccc(CN(Cc2ccc(O)cc2)c2ccc(N(Cc3ccc(O)cc3)Cc3ccc(O)cc3)cc2)cc1,2.78 equiv
7,COc1cc(C=O)cc(OC)c1O [SYRINGALDEHYDE],0.93 equiv
8,COc1cc(CN(CCCCO)Cc2ccc(O)c(OC)c2)ccc1O,0.62 equiv
9,c1ccc(CN(Cc2ccccc2)c2ccc(N(Cc3ccccc3)Cc3ccccc3)cc2)cc1,2.81 equiv
10,COc1cc(CN(Cc2ccccc2)Cc2ccc(O)c(OC)c2)ccc1O,0.55 equiv
11,COc1cc(CN(CCCO)Cc2cc(OC)c(O)c(OC)c2)cc(OC)c1O,1.14 equiv
12,COc1cc(CN(CCCCCO)Cc2ccc(O)c(OC)c2)ccc1O,0.63 equiv
13,CCCCN(Cc1ccc(O)c(OC)c1)Cc1ccc(O)c(OC)c1,0.6 equiv
14,COc1cc(CN(CCCCCCO)Cc2ccc(O)c(OC)c2)ccc1O,0.64 equiv
15,COc1cc(CN(CCCN)Cc2ccc(O)c(OC)c2)ccc1O,0.28 equiv
16,COc1cc(/C=N/Cc2ccccc2)ccc1O,0.06 equiv
17,COc1cc(CN(Cc2ccccc2)Cc2cc(OC)c(O)c(OC)c2)cc(OC)c1O,1.11 equiv
18,COc1cc(CN(CCO)Cc2ccc(O)c(OC)c2)ccc1O,0.62 equiv
19,COc1cc(CN(CCCO)Cc2ccc(O)c(OC)c2)ccc1O,0.68 equiv
20,COc1cc(CN(Cc2ccc(O)c(OC)c2)[C@H]2CC[C@H](N(Cc3ccc(O)c(OC)c3)Cc3ccc(O)c(OC)c3)CC2)ccc1O,0.56 equiv

# System: SH-SY5Y
# Test: Cytotoxicity against human SH-SY5Y cells up to 1 mM incubated for 24 hrs by MTT assay
# Assay type: cell-based
row,Compound,Activity
1,COc1cc(CN(CCCO)Cc2ccc(O)c(OC)c2)ccc1O,Non-Toxic

# System: not listed separately
# Test: Antioxidant activity assessed as trolox equivalents of AAPH-induced radical scavenging activity pretreated for 30 mins followed by […] challenge measured every 2 mins for 2 hrs by ORAC-FL assay
# Assay type: functional
row,Compound,Activity
1,COc1cc(C=O)ccc1O [VANILLIN],2.19 equiv
2,COc1cc(CN(Cc2ccc(O)c(OC)c2)c2ccc(N(Cc3ccc(O)c(OC)c3)Cc3ccc(O)c(OC)c3)cc2)ccc1O,20.4 equiv
3,COc1cc(CN(CCCN(Cc2ccc(O)c(OC)c2)Cc2ccc(O)c(OC)c2)Cc2ccc(O)c(OC)c2)ccc1O,7.54 equiv
4,COc1cc(CNCc2ccccc2)ccc1O,3.16 equiv
5,COc1cc(C=O)cc(OC)c1O [SYRINGALDEHYDE],1.45 equiv
6,COc1cc(CN(Cc2ccccc2)Cc2ccc(O)c(OC)c2)ccc1O,5.34 equiv
7,COc1cc(CN(CCCN)Cc2ccc(O)c(OC)c2)ccc1O,4.08 equiv
8,COc1cc(/C=N/Cc2ccccc2)ccc1O,1.85 equiv
9,COc1cc(CN(CCCO)Cc2ccc(O)c(OC)c2)ccc1O,6.02 equiv

# System: DNA
# Test: Antioxidant activity assessed as protection against AAPH-induced DNA damage in Escherichia coli plasmid pbr322 DNA assessed as DNA intensity level at 4 uM after 1 hr by agarose gel electrophoresis method (reference value: 0%)
# Assay type: functional
row,Compound,Activity
1,COc1cc(CN(Cc2ccc(O)c(OC)c2)c2ccc(N(Cc3ccc(O)c(OC)c3)Cc3ccc(O)c(OC)c3)cc2)ccc1O,96.1%

# System: SH-SY5Y
# Test: Cytoprotective activity against H2O2-induced oxidative damage in human SH-SY5Y cells at 5 uM preincubated for 24 hrs followed by H2O2 addition and measured after 24 hrs by MTT assay
# Assay type: functional
row,Compound,Activity
1,COc1cc(CN(CCCO)Cc2ccc(O)c(OC)c2)ccc1O,6%

# System: SH-SY5Y
# Test: Cytoprotective activity against H2O2-induced oxidative damage in human SH-SY5Y cells at 10 uM preincubated for 24 hrs followed by H2O2 addition and measured after 24 hrs by MTT assay
# Assay type: functional
row,Compound,Activity
1,COc1cc(CN(Cc2ccc(O)c(OC)c2)c2ccc(N(Cc3ccc(O)c(OC)c3)Cc3ccc(O)c(OC)c3)cc2)ccc1O,30%

# System: DNA
# Test: Antioxidant activity assessed as protection against AAPH-induced DNA damage in Escherichia coli plasmid pbr322 DNA assessed as DNA intensity level at 0.11 uM after 1 hr by agarose gel electrophoresis method (reference value: 0%)
# Assay type: functional
row,Compound,Activity
1,COc1cc(CN(Cc2ccc(O)c(OC)c2)c2ccc(N(Cc3ccc(O)c(OC)c3)Cc3ccc(O)c(OC)c3)cc2)ccc1O,15.8%

# System: DNA
# Test: Antioxidant activity assessed as protection against AAPH-induced DNA damage in Escherichia coli plasmid pbr322 DNA assessed as DNA intensity level at 1 uM after 1 hr by agarose gel electrophoresis method (reference value: 0%)
# Assay type: functional
row,Compound,Activity
1,COc1cc(CN(Cc2ccc(O)c(OC)c2)c2ccc(N(Cc3ccc(O)c(OC)c3)Cc3ccc(O)c(OC)c3)cc2)ccc1O,81.9%

# System: DNA
# Test: Antioxidant activity assessed as protection against AAPH-induced DNA damage in Escherichia coli plasmid pbr322 DNA after 1 hr by agarose gel electrophoresis method
# Assay type: functional
row,Compound,IC50
1,COc1cccc(CN(Cc2cccc(OC)c2)c2ccc(N(Cc3cccc(OC)c3)Cc3cccc(OC)c3)cc2)c1,13.6 µM
2,COc1cc(C=O)ccc1O [VANILLIN],5.6 µM
3,COc1cc(CN(Cc2ccc(O)c(OC)c2)c2ccc(N(Cc3ccc(O)c(OC)c3)Cc3ccc(O)c(OC)c3)cc2)ccc1O,0.6 µM
4,COc1cc(CN(CCCN(Cc2ccc(O)c(OC)c2)Cc2ccc(O)c(OC)c2)Cc2ccc(O)c(OC)c2)ccc1O,13.9 µM
5,COc1cc(CNCc2ccccc2)ccc1O,4.1 µM
6,COc1cc(C=O)cc(OC)c1O [SYRINGALDEHYDE],9.5 µM
7,COc1cc(CN(Cc2ccccc2)Cc2ccc(O)c(OC)c2)ccc1O,3.8 µM
8,COc1cc(CN(CCCN)Cc2ccc(O)c(OC)c2)ccc1O,61.5 µM
9,COc1cc(/C=N/Cc2ccccc2)ccc1O,3.8 µM
10,COc1cc(CN(CCCO)Cc2ccc(O)c(OC)c2)ccc1O,3.6 µM

# System: not listed separately
# Test: Antioxidant activity assessed as DPPH radical scavenging activity after 30 mins
# Assay type: functional
row,IC50,Compound
1,4050 µM,COc1cc(C=O)ccc1O [VANILLIN]
2,5.8 µM,COc1cc(CN(Cc2ccc(O)c(OC)c2)c2ccc(N(Cc3ccc(O)c(OC)c3)Cc3ccc(O)c(OC)c3)cc2)ccc1O
3,107 µM,COc1cc(CNCc2ccccc2)ccc1O
4,98 µM,Oc1ccc(CN(Cc2ccc(O)cc2)c2ccc(N(Cc3ccc(O)cc3)Cc3ccc(O)cc3)cc2)cc1
5,1150 µM,COc1cc(C=O)cc(OC)c1O [SYRINGALDEHYDE]
6,21 µM,COc1cc(CN(CCCCO)Cc2ccc(O)c(OC)c2)ccc1O
7,144 µM,c1ccc(CN(Cc2ccccc2)c2ccc(N(Cc3ccccc3)Cc3ccccc3)cc2)cc1
8,29.7 µM,COc1cc(CN(Cc2ccccc2)Cc2ccc(O)c(OC)c2)ccc1O
9,12.3 µM,COc1cc(CN(CCCO)Cc2cc(OC)c(O)c(OC)c2)cc(OC)c1O
10,24 µM,COc1cc(CN(CCCCCO)Cc2ccc(O)c(OC)c2)ccc1O
11,21.9 µM,CCCCN(Cc1ccc(O)c(OC)c1)Cc1ccc(O)c(OC)c1
12,22.2 µM,COc1cc(CN(CCCCCCO)Cc2ccc(O)c(OC)c2)ccc1O
13,248 µM,COc1cc(/C=N/Cc2ccccc2)ccc1O
14,15.4 µM,COc1cc(CN(Cc2ccccc2)Cc2cc(OC)c(O)c(OC)c2)cc(OC)c1O
15,12.8 µM,COc1cc(CN(CCO)Cc2ccc(O)c(OC)c2)ccc1O
16,13.7 µM,COc1cc(CN(CCCO)Cc2ccc(O)c(OC)c2)ccc1O
17,138 µM,COc1cc(CN(Cc2ccc(O)c(OC)c2)[C@H]2CC[C@H](N(Cc3ccc(O)c(OC)c3)Cc3ccc(O)c(OC)c3)CC2)ccc1O
